Assay results published in US20250340577A1, “BETA-LACTOMASE INHIBITORS AND USES THEREOF” (Case Western Reserve University, priority 2021, published 2025).
Read-outs that look alike come from different tables or passages of the source.

Legend:
[1] = system: K. pneumoniae ST17; experiment: MIC with cefepime, agar microdilution, CLSI; format: cell-based; details: compound fixed at 4 ug/ml; KPC-2, TEM, SHV, CTX-M-Group 1
Procedure: (§1) Minimum inhibitory concentration (MIC) of MB076 and derivatives (PCF_038-043) in combination with cefepime.
(§2) MICs were determined by the Agar microdilution method, following CLSI guidelines. Compounds were tested at fixed concentration of 4 ug/ml in combination with cefepime.

[2] = system: E. coli ATCC BAA202; experiment: MIC with cefepime, agar microdilution, CLSI; format: cell-based; details: compound fixed at 4 ug/ml; SHV-1
Procedure: as §1, §2

[3] = system: E. coli DH10B pBC-SK SHV-2; experiment: MIC with cefepime, agar microdilution, CLSI; format: cell-based; details: compound fixed at 4 ug/ml
Procedure: as §1, §2

[4] = system: E. coli pLTCF2; experiment: MIC with cefepime, agar microdilution, CLSI; format: cell-based; details: compound fixed at 4 ug/ml
Procedure: as §1, §2

[5] = system: E. coli DH10B pBC-SK control; experiment: MIC with cefepime, agar microdilution, CLSI; format: cell-based; details: compound fixed at 4 ug/ml; B-lactamases none
Procedure: as §1, §2

[6] = system: K. pneumoniae ST258 C3; experiment: MIC with cefepime, agar microdilution, CLSI; format: cell-based; details: compound fixed at 4 ug/ml; KPC-3
Procedure: as §1, §2

[7] = system: K. pneumoniae 255; experiment: MIC with cefepime, agar microdilution, CLSI; format: cell-based; details: compound fixed at 4 ug/ml; TEM-1, SHV-2
Procedure: as §1, §2

[8] = system: K. pneumoniae original KPC-2; experiment: MIC with cefepime, agar microdilution, CLSI; format: cell-based; details: compound fixed at 4 ug/ml
Procedure: as §1, §2

[9] = system: K. pneumoniae 266; experiment: MIC with cefepime, agar microdilution, CLSI; format: cell-based; details: compound fixed at 4 ug/ml; SHV-5
Procedure: as §1, §2

[10] = system: E. coli 29838; experiment: MIC with cefepime, agar microdilution, CLSI; format: cell-based; details: compound fixed at 4 ug/ml; CTX-M-14, TEM-1
Procedure: as §1, §2

[11] = system: A. baumannii 0057; experiment: MIC with cefepime, agar microdilution, CLSI; format: cell-based; details: compound fixed at 4 ug/ml; ADC-7
Procedure: as §1, §2

[12] = system: K. pneumoniae 253; experiment: MIC with cefepime, agar microdilution, CLSI; format: cell-based; details: compound fixed at 4 ug/ml; TEM-12, SHV-5, CTX-M
Procedure: as §1, §2

[13] = system: E. coli DH10B pBC-SK KPC-2; experiment: MIC with cefepime, agar microdilution, CLSI; format: cell-based; details: compound fixed at 4 ug/ml
Procedure: as §1, §2

[14] = system: E. coli DH10B pBC-SK PDC-3; experiment: MIC with cefepime, agar microdilution, CLSI; format: cell-based; details: compound fixed at 4 ug/ml
Procedure: as §1, §2

[15] = Single dose IV PK in plasma and thigh homogenate, thigh infection model; format: in vivo, mice; details: for AUC(0-inf) / AUC(0-t) / C0 / clearance / half-life / Vd: female, ICR, mouse; for Vd: read-out: Vss
Procedure: A single dose PK study with MB_076 has been conducted to evaluate antibiotic exposure over time in plasma samples and thigh homogenates following a single dose IV administration in K. pneumoniae AR-BANK #0098 (KPC-2) thigh infection model with neutropenic female ICR mice. Among the PK parameters, t1/2, C0, AUClast, AUCINF, Vss and CL were evaluated (Table 7), while for PD parameters, C0/MIC, AUClast/MIC and T>MIC were calculated (Table 8). In particular, the % time over the minimum inhibitory concentration (T>MIC) was calculated for all dose groups to determine the impact of MB076 efficacy in this animal model. Plots of concentration in plasma and thigh homogenate versus time were created and the linearity of the resulting PK parameters was assessed.

[16] = format: in vivo; details: for Abdominal tone / Body weight after 1° dose / Body weight after 4° dose / Limb tone / Vocalization: QID q6h; for Piloerection: animals of 4, after 4° dose; for Vocalization: animals of 4
Procedure: A maximum tolerable dose (MTD) assessment was conducted to evaluate the tolerability of MB076 with meropenem and cilastatin combination. Neutropenic uninfected female ICR mice were used. Meropenem combined with cilastatin was subcutaneously (SC) administered followed by intravenous (IV) administration of MB076 within 10 min. Doses were administered four times (QID) with 6 h intervals (q6h) for one day. Animals were monitored for acute symptoms after the first dose administration and cage side observations were recorded for the subsequent QID doses. Moreover, the body weight of each animal was recorded daily.

[17] = plasma, 12.5 mg/kg IV single dose
[18] = plasma, 25 mg/kg IV single dose
[19] = plasma, 50 mg/kg IV single dose
[20] = plasma, 100 mg/kg IV single dose
[21] = thigh homogenate, 12.5 mg/kg IV single dose
[22] = thigh homogenate, 25 mg/kg IV single dose
[23] = thigh homogenate, 50 mg/kg IV single dose
[24] = thigh homogenate, 100 mg/kg IV single dose
[25] = MEM 500 mg/Kg + cilastatin 200 mg/Kg (SC) + MB076 25 mg/Kg (IV)
[26] = MEM 500 mg/Kg + cilastatin 200 mg/Kg (SC) + MB076 50 mg/Kg (IV)
[27] = MEM 1000 mg/Kg + cilastatin 200 mg/Kg (SC) + MB076 25 mg/Kg (IV)
[28] = MEM 1000 mg/Kg + cilastatin 200 mg/Kg (SC) + MB076 50 mg/Kg (IV)
[29] = MEM 1000 mg/Kg + cilastatin 200 mg/Kg (SC) + MB076 100 mg/Kg (IV)

For `Nc1nnc(SCC(=O)NC(Cn2cc(C(=O)O)nn2)B(O)O)s1` (stereo not drawn) [MB076], the MIC of cefepime in combination with compound [1] was 16 µg/mL, the MIC of cefepime in combination with compound [2] was < 0.25 µg/mL and the MIC of cefepime in combination with compound [3] was < 0.25 µg/mL. The MIC of cefepime in combination with compound [4] was < 0.25 µg/mL, the MIC of cefepime in combination with compound [5] was < 0.25 µg/mL and the MIC of cefepime in combination with compound [6] was 1 µg/mL. For the same molecule, the MIC of cefepime in combination with compound [7] was 2 µg/mL, the MIC of cefepime in combination with compound [8] was < 0.25 µg/mL and the MIC of cefepime in combination with compound [9] was < 0.25 µg/mL. For the same molecule, the MIC of cefepime in combination with compound [10] was < 0.25 µg/mL, the MIC of cefepime in combination with compound [11] was 64 µg/mL and the MIC of cefepime in combination with compound [12] was 8 µg/mL. For the same molecule, the MIC of cefepime in combination with compound [13] was < 0.25 µg/mL, the MIC of cefepime in combination with compound [14] was < 0.25 µg/mL and the AUC(0-inf) [15, 17] was 7200 ng·h/mL. For the same molecule, the AUC(0-t) [15, 17] was 7100 ng·h/mL, the C0 [15, 17] was 35.6 µg/mL and the clearance [15, 17] was 29.1 mL/min/kg. The half-life [15, 17] was 33.6 min, the Vd [15, 17] was 0.65 L/kg and the AUC(0-inf) [15, 18] was 17800 ng·h/mL. It also gave an AUC(0-t) [15, 18] of 17600 ng·h/mL, a C0 [15, 18] of 84 µg/mL and a clearance [15, 18] of 23.4 mL/min/kg. It also gave a half-life [15, 18] of 36.6 min, a Vd [15, 18] of 0.8 L/kg and an AUC(0-inf) [15, 19] of 39100 ng·h/mL. The AUC(0-t) [15, 19] was 39000 ng·h/mL, the C0 [15, 19] was 207 µg/mL and the clearance [15, 19] was 21.3 mL/min/kg. It also gave a half-life [15, 19] of 25.8 min, a Vd [15, 19] of 0.35 L/kg and an AUC(0-inf) [15, 20] of 104000 ng·h/mL. For the same molecule, the AUC(0-t) [15, 20] was 103000 ng·h/mL, the C0 [15, 20] was 638 µg/mL and the clearance [15, 20] was 16.1 mL/min/kg. It also gave a half-life [15, 20] of 25.8 min, a Vd [15, 20] of 0.21 L/kg and an AUC(0-inf) [15, 21] of 1000 ng·h/mL. It also gave an AUC(0-t) [15, 21] of 1000 ng·h/mL, a C0 [15, 21] of 6.3 µg/mL and a half-life [15, 21] of 14.4 min. The Vd [15, 21] was 2.96 L/kg, the AUC(0-inf) [15, 22] was 1800 ng·h/mL and the AUC(0-t) [15, 22] was 1700 ng·h/mL. For the same molecule, the C0 [15, 22] was 17 µg/mL, the half-life [15, 22] was 6.6 min and the Vd [15, 22] was 1.38 L/kg. The AUC(0-inf) [15, 23] was 6300 ng·h/mL, the AUC(0-t) [15, 23] was 6300 ng·h/mL and the C0 [15, 23] was 34 µg/mL. It also gave a half-life [15, 23] of 12.6 min, a Vd [15, 23] of 1.76 L/kg and an AUC(0-inf) [15, 24] of 17300 ng·h/mL. It also gave an AUC(0-t) [15, 24] of 17200 ng·h/mL, a C0 [15, 24] of 108 µg/mL and a half-life [15, 24] of 15 min. For the same molecule, the Vd [15, 24] was 1.07 L/kg, the “Linearity of C0 and AUClast with dose” value ([15]; plasma and thigh homogenates, 12.5-100 mg/kg IV) was “correlated linearly with dose” and the Abdominal tone [16, 25] was “Mild”. For the same molecule, the “Body weight after 1° dose” value [16, 25] was 23, the “Body weight after 4° dose” value [16, 25] was 22 and the Limb tone [16, 25] was “Mild”. The Abdominal tone [16, 26] was “increased”, the “Body weight after 1° dose” value [16, 26] was 23 and the “Body weight after 4° dose” value [16, 26] was 22.2. For the same molecule, the Limb tone [16, 26] was “Mild”, the Abdominal tone [16, 27] was “Mild” and the “Body weight after 1° dose” value [16, 27] was 23.2. The “Body weight after 4° dose” value [16, 27] was 21.7, the Limb tone [16, 27] was “Mild” and the Abdominal tone [16, 28] was “Mild”. The “Body weight after 1° dose” value [16, 28] was 23, the “Body weight after 4° dose” value [16, 28] was 22 and the Limb tone [16, 28] was “Mild”. For the same molecule, the Abdominal tone [16, 29] was “Mild”, the “Body weight after 1° dose” value [16, 29] was 23 and the “Body weight after 4° dose” value [16, 29] was 22. For the same molecule, the Limb tone [16, 29] was “increased and Mild”, the “Acute toxicity or mortality” value ([16]; all tested dose groups, MB076 IV with meropenem + cilastatin SC, QID q6h one day, neutropenic uninfected female ICR mice) was “No acute toxicity or mortality was observed” and the Piloerection [16, 25] was 4/4 after. The Piloerection [16, 26] was 4/4 after, the Piloerection [16, 27] was 4/4 after and the Piloerection [16, 28] was 4/4 after. For the same molecule, the Piloerection [16, 29] was 4/4 after, the Vocalization [16, 25] was 1/4 and the Vocalization [16, 26] was 0/4. For the same molecule, the Vocalization [16, 27] was 2/4, the Vocalization [16, 28] was 3/4 and the Vocalization [16, 29] was 0/4.
